In patent US20220308045A1, “EXPANDABLE LIVER ORGANOIDS, MEDIA COMPOSITION FOR DIFFERENTIATION THEREOF, AND METHOD FOR PRODUCING LIVER ORGANOIDS USING THE SAME” (KOREA RESEARCH INSTITUTE OF BIOSCIENCE AND BIOTECHNOLOGY, priority 2019, published 2022):

Experiments:
[1] = test system: organoids in the HM conditions; test: APAP toxic damage, regeneration and inflammatory response of liver organoids; type: cell-based, human
Experimental: Time-lapsed images were taken at 37° C. under 5% CO2 at 30-minute intervals with an Olympus IX83 inverted microscope. The diameter of the organoid was measured using ImageJ program at the designated time point from the time lapsed image. Fluorescence images were taken with a confocal microscope. In addition, the organoids were cultured for 30 minutes with 7.5 μM dihydroethidium (Sigma; D7008) for detecting ROS, 30 μM monochlorobimane (Sigma; 69899) for measuring GSH content, and 2.5 μM Syto11 (Thermo Fisher; S7573) for staining nuclei.
In addition, the expressions of high-mobility group protein 1 (HMGB1), which is a protein involved in the detection of ROS and the inflammatory response of cells, ki67, which is a marker indicating cell proliferation, E-cadherin, which is an epithelial marker, LC3B, which is an autophagy marker, and Tom20, a mitochondrial marker, were analyzed at protein level according to the method described in Experimental Example 1.

[2] = test system: steatosis-induced liver organoids; test: Drug screening of autophagy library for suppressing lipid accumulation (Nile red); type: cell-based, human; conditions: 10 μM during steatosis induction; top four of 151 chemical substances
Experimental: For drug screening, the organoids were treated with 151 chemical substances at a concentration of 10 μM in the autophagy library (Selleckchem; At L2600) during the hepatic steatosis induction period. Then, the organoids were stained with Nile red and fluorescence images were analyzed with a confocal microscope.

[3] = test system: steatosis-induced liver organoids; test: Hepatic steatosis model: lipid droplets by bright field microscope and Nile red staining; type: cell-based, human; conditions: added to FA (oleate and palmitate), compared with FA alone
Experimental: The organoids in the HM conditions were seeded on a 24-well plate in order to be induced into liver organoids with steatosis. Three days after seeding, 0.5 mM oleate (Sigma; 07501) combined with 12% fatty acid-free BSA (Sigma; A8806) and 0.25 mM palmitate (Sigma; P9767) were added for 3 days, and images of accumulated lipid droplets were observed under a microscope. For Nile red staining, the samples were washed with PBS and fixed with 4% PFA at 4° C. overnight. The organoids were washed with PBS and treated with 10 μg/ml Nile red solution (Thermo Fisher; N1142) at room temperature for 5 minutes. Fluorescence images were taken with a confocal microscope.
(§1) Meanwhile, in order to confirm the effect on the induction of hepatic steatosis, the organoids in the HM conditions were treated with BSA, FA, FA+etomoxir, FA+L-carnitine, and FA+metformin, respectively, and the results were compared.

[4] = test system: steatosis-induced liver organoids; test: Hepatic steatosis model: mitochondrial respiration measured by OCR; type: cell-based, human; conditions: added to FA
Experimental: (§2) Oxygen consumption rate (OCR) was measured for real-time monitoring of mitochondrial toxicity. Two days before the measurement, the organoids were seeded on XFe 96-well plate (Agilent; 102416-100). The probe cartridge was adjusted overnight in a non-C02 incubator at 37° C. On the assay day, the culture medium was removed and washed with warm assay medium (Agilent Seahorse XF base medium (102353-100) supplemented with 1 mM glutamine, 1 mM pyruvate and 17.5 mM glucose for OCR measurement), and the assay medium was added. The culture dish was placed in a non-CO2 incubator at 37° C. for 1 hour, and OCR was measured using Seahorse XFe96 Flux Analyzer according to the manufacturer's instructions.
(§3) For OCR measurement, ATP synthesis inhibitors (1.5 μM oligomycin and ETC complex V inhibitor), uncoupler (1 μM FCCP), and complex I inhibitor (0.5 μM Rotenone) plus complex III inhibitor (0.5 μM antimycin A) were sequentially added at designated time points. The measured value was normalized to the number of surviving cells measured by Cell Counting Kit-8 (Dogindo; CK04-01).
as §1

[5] = test system: steatosis-induced liver organoids; test: Hepatic steatosis model: triglyceride concentration; type: cell-based, human; conditions: added to FA, compared with BSA control or FA alone
Experimental: For the analysis of triglyceride concentration, the steatosis-induced organoids were analyzed by using triglyceride assay kit (Abcam; ab65336) according to the manufacturer's instructions. The organoids were homogenized for 5 minutes using 1 mL of a 5% NP-40 solution under the condition of heated to 80 to 100° C. The pellets were diluted 10-fold with dilution water before starting the analysis. Absorbance was measured at 570 nm by using SpectraMax microplate reader.
as §1

in vitro = conditions: human
Experimental: (§4) The 2D differentiated mature hepatocytes (2D MH) and organoids (HM) in the HM conditions were seeded in a 24-well plate. […] Three days after seeding, the drug was added daily for 6 days, and toxicity was evaluated by calculating the number of cells using Countess II FL (Life Technology). Then, the organoids were washed with PBS, and fluorescence images were taken with a confocal microscope. Relative intensity was measured using ZEN program (Zeiss) in the same region.
(§5) Next, the effects of trovafloxacin (Sigma; PZ0015) and levofloxacin (Sigma; 28,266), which are structurally related antibiotics, on the 2D MH and the organoids in the HM conditions were compared.

[6] = read-out: Cmax concentration; cited from earlier work
CYP3A4 = CYP3A4 (Homo sapiens, UniProt P08684)
Chain of CYP3A4 (P08684 whole entry): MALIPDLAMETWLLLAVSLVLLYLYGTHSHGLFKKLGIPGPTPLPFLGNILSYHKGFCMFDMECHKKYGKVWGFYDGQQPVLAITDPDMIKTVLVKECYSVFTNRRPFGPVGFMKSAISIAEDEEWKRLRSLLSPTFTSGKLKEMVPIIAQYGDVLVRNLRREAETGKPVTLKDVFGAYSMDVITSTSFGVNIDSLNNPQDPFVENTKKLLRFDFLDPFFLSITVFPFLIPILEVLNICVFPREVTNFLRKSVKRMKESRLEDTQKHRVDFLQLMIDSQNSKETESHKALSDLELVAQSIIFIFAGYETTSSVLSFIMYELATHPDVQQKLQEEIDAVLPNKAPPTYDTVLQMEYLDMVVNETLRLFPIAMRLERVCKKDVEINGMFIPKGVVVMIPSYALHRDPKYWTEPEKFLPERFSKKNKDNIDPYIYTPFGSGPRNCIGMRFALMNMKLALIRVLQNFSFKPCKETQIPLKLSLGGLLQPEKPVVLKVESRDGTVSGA
Experimental: Aliquots (100 μL) were diluted with 2-fold volume of acetonitrile containing carbamazepine as an internal standard for sample analysis and transferred to a 96-well plate.

[7] = test system: organoids in the HM conditions; test: in vitro; conditions: human, 6 days
Experimental: as §4, §5

[8] = test system: organoids in the HM conditions; test: Oxygen consumption rate (OCR) for mitochondrial toxicity in liver organoids; type: cell-based, human; conditions: 0.8 μM and 4 μM, 6 days
Experimental: as §2, §3

[9] = patients; cited from earlier work
2D MH = test: Drug toxicity by number of cells after 6 days of treatment, 2D differentiated mature hepatocytes; type: cell-based, human; conditions: 0.8 μM and 4 μM
Experimental: as §4, §5

For `CC(=O)Nc1ccc(O)cc1` [APAP, acetaminophen], the “reactive oxygen species (ROS)” value ([1]; 20 mM APAP, dihydroethidium staining) was “increased”, the “expression amounts of Ki67, E-cadherin, and Tom20” value ([1]; 20 mM APAP, immunofluorescence) was “reduced” and the “expression of HMGB1” value ([1]; 20 mM APAP, immunofluorescence, migration to the cytoplasm) was “reduced”. The organoid morphology ([1]; 20 mM daily for 7 days) was “severe morphological damage”, the “organoid morphology and size after recovery” value ([1]; 20 mM for 60 hours from day 2, new HM medium on day 4.5) was “recovered on day 7” and the “expression of LC3B” value ([1]; APAP for 60 hours versus APAP for 5 days) was “more strongly induced”. The “expression of IL-10” value ([1]; APAP for 60 hours, then new HM medium on day 4.5, qRT-PCR) was “significantly increased” and the “expressions of proinflammatory mediators (IL-1β, IL-6, IL-8) and pathological mediators (TNF-α and FasL)” value ([1]; APAP for 7 days, qRT-PCR) was “strongly induced”.

With `CO[C@H]1C[C@@H]2CC[C@@H](C)[C@@](O)(O2)C(=O)C(=O)N2CCCC[C@H]2C(=O)O[C@H]([C@H](C)C[C@@H]2CC[C@@H](OCCO)[C@H](OC)C2)CC(=O)[C@H](C)/C=C(\C)[C@@H](O)[C@@H](OC)C(=O)[C@H](C)C[C@H](C)/C=C/C=C/C=C/1C` [Everolimus] the “phenotype of hepatic steatosis and lipid accumulation in drug screening” value (shortened to “phenotype”) [2] was “capable of restoring lipid accumulation”.

For `COc1ccc(-c2ccc3c(N4CCOCC4)nc(N4C[C@@H](C)O[C@@H](C)C4)nc3n2)cc1CO` [KU-0063794], the “phenotype” value [2] was “capable of restoring lipid accumulation”.

With `C[N+](C)(C)C[C@H](O)CC(=O)[O-]` [L-carnitine] the “accumulation of intracellular lipid droplets / lipid accumulation” value [3] was “significantly reduced” and the “mitochondrial respiration measured by OCR” value [4] was “recovered”.

With `O=C(CCCCCN1C(=O)c2cccc3cccc(c23)C1=O)NO` [Scriptaid] the “phenotype” value [2] was “capable of restoring lipid accumulation”.

With `CC(=O)Nc1ccc(C(=O)Nc2ccccc2N)cc1` [Tacedinalin, Tacedinaline] the “phenotype” value [2] was “capable of restoring lipid accumulation”.

In the case of `CCOC(=O)[C@@]1(CCCCCCOc2ccc(Cl)cc2)CO1` [etomoxir], the “accumulation of intracellular lipid droplets / lipid accumulation” value [3] is reported as “significant accumulation”, the intracellular triglyceride concentration [5] is reported as “significantly increased” and the “mitochondrial respiration measured by OCR” value [4] is reported as “significantly reduced”.

For `C[C@H]1COc2c(N3CCN(C)CC3)c(F)cc3c(=O)c(C(=O)O)cn1c23` [levofloxacin], the cytotoxicity at 6 days, 100 μM (in vitro) is listed as 36% and the Cmax [6] is listed as 23.8 µM.

In the case of `CN(C)C(=N)N=C(N)N` [metformin], the “accumulation of intracellular lipid droplets / lipid accumulation” value [3] is reported as “slightly reduced” and the intracellular triglyceride concentration [5] is reported as “not reduced”.

With `C[C@]12CC[C@H]3[C@@H](CCC4=CC(=O)CC[C@@]43C)[C@@H]1CC[C@@H]2O` [testosterone] the “metabolism to 6β-hydroxytestosterone” value (CYP3A4) was “directly hydroxylated”.

With `Cc1c(C)c2c(c(C)c1O)CCC(C)(COc1ccc(CC3SC(=O)NC3=O)cc1)O2` (stereo not drawn) [troglitazone, Troglitazone] the “toxic response, 2D MH versus organoids” value [7] was “different in 2D and 3D models”.

In the case of `N[C@@H]1[C@H]2CN(c3nc4c(cc3F)c(=O)c(C(=O)O)cn4-c3ccc(F)cc3F)C[C@@H]12` [trovafloxacin], the “OCR (mitochondrial respiration)” value [8] is given as “reduction of OCR”, the reported side effect [9] is given as “patient death due to liver failure” and the Cmax [6] is given as 4.1 µM. For the same compound, the number of cells (2D MH) was “little change”.
